Data: PubChem BioAssay AID1963973 (Molecular Pharmacology Branch, DTP, NCI, 2024)

Tested on: 883617-216-R-J1-PDC tumor spheroids, viability
Test: Anticancer human tumor 883617-216-R-J1-PDC patient-derived bladder carcinoma cell line growth inhibition [PI3K]
Details: spheroids with HUVEC and MSC; for IC50: curve of first compound; for viability, T/C: stronger effect = lower value
Method in brief: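 Spheroid viability read-out. Co-cultures contained the tumor line plus HUVEC and human MSCs. Each agent was paired with a PI3K inhibitor (inavolisib, alpelisib, duvelisib, copanlisib) across half-log dilutions starting at clinical Cmax, or at 10 microM when Cmax was unknown.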

[1] = second compound 0.00316 µM, first compound 0.0316 µM
[2] = second compound 0.00316 µM, first compound 0.1 µM
[3] = second compound 0.00316 µM, first compound 0.316 µM
[4] = second compound 0.00316 µM, first compound 1 µM
[5] = second compound 0.00316 µM, first compound 3.16 µM
[6] = second compound 0.00316 µM, first compound 10 µM
[7] = second compound 0.01 µM, first compound 0.0316 µM
[8] = second compound 0.01 µM, first compound 0.1 µM
[9] = second compound 0.01 µM, first compound 0.316 µM
[10] = second compound 0.01 µM, first compound 1 µM
[11] = second compound 0.01 µM, first compound 3.16 µM
[12] = second compound 0.01 µM, first compound 10 µM
[13] = second compound 0.0316 µM, first compound 0.0316 µM
[14] = second compound 0.0316 µM, first compound 0.1 µM
[15] = second compound 0.0316 µM, first compound 0.316 µM
[16] = second compound 0.0316 µM, first compound 1 µM
[17] = second compound 0.0316 µM, first compound 3.16 µM
[18] = second compound 0.0316 µM, first compound 10 µM
[19] = second compound 0.1 µM, first compound 0.0316 µM
[20] = second compound 0.1 µM, first compound 0.1 µM
[21] = second compound 0.1 µM, first compound 0.316 µM
[22] = second compound 0.1 µM, first compound 1 µM
[23] = second compound 0.1 µM, first compound 3.16 µM
[24] = second compound 0.1 µM, first compound 10 µM
[25] = second compound 0.316 µM, first compound 0.0316 µM
[26] = second compound 0.316 µM, first compound 0.1 µM
[27] = second compound 0.316 µM, first compound 0.316 µM
[28] = second compound 0.316 µM, first compound 1 µM
[29] = second compound 0.316 µM, first compound 3.16 µM
[30] = second compound 0.316 µM, first compound 10 µM
[31] = second compound 1 µM, first compound 0.0316 µM
[32] = second compound 1 µM, first compound 0.1 µM
[33] = second compound 1 µM, first compound 0.316 µM
[34] = second compound 1 µM, first compound 1 µM
[35] = second compound 1 µM, first compound 3.16 µM
[36] = second compound 1 µM, first compound 10 µM
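Note: spheroids exposed to agents for 7 days before the viability read.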

Work on `C#Cc1c(F)ccc2cc(O)cc(-c3ncc4c(N5CC6CCC(C5)N6)nc(OCC56CCCN5CC(F)C6)nc4c3F)c12` (stereo unspecified) + CC(Nc1ccc2c(c1)OCCn1cc(N3C(=O)OCC3C(F)F)nc1-2)C(N)=O yielded an IC50 (second compound 0.00316 µM) greater than 10000 nM, an IC50 (second compound 0.01 µM) greater than 10000 nM and an IC50 (second compound 0.0316 µM) of 6510 nM. It also gave an IC50 (second compound 0.1 µM) of less than 31.6 nM, an IC50 (second compound 0.316 µM) of less than 31.6 nM and an IC50 (second compound 1 µM) of less than 31.6 nM. It also gave a viability, T/C [1] of 85.3%, a viability, T/C [2] of 89.7% and a viability, T/C [3] of 84.8%. The viability, T/C [4] was 91.2%, the viability, T/C [5] was 79.6% and the viability, T/C [6] was 54.8%. It also gave a viability, T/C [7] of 87.9%, a viability, T/C [8] of 88.4% and a viability, T/C [9] of 88.3%. It also gave a viability, T/C [10] of 85%, a viability, T/C [11] of 74.3% and a viability, T/C [12] of 53.2%. For the same compound, the viability, T/C [13] was 79.9%, the viability, T/C [14] was 75.3% and the viability, T/C [15] was 64.9%. The viability, T/C [16] was 88.5%, the viability, T/C [17] was 62.4% and the viability, T/C [18] was 40.2%. It also gave a viability, T/C [19] of 41.1%, a viability, T/C [20] of 39.7% and a viability, T/C [21] of 42.7%. For the same compound, the viability, T/C [22] was 39.6%, the viability, T/C [23] was 31% and the viability, T/C [24] was 21%. The viability, T/C [25] was 27.6%, the viability, T/C [26] was 21.4% and the viability, T/C [27] was 21.4%. For the same compound, the viability, T/C [28] was 24.6%, the viability, T/C [29] was 16.7% and the viability, T/C [30] was 16.8%. For the same compound, the viability, T/C [31] was 13.4%, the viability, T/C [32] was 16.9% and the viability, T/C [33] was 17.1%. It also gave a viability, T/C [34] of 12.8%, a viability, T/C [35] of 14.2% and a viability, T/C [36] of 8%.
`C=CC(=O)N1CCN(c2nc(=O)n(-c3c(C)ccnc3C(C)C)c3nc(-c4c(O)cccc4F)c(F)cc23)C(C)C1` (stereo unspecified) + CC(Nc1ccc2c(c1)OCCn1cc(N3C(=O)OCC3C(F)F)nc1-2)C(N)=O showed an IC50 (second compound 0.00316 µM) greater than 10000 nM, an IC50 (second compound 0.01 µM) of 31.6 nM and an IC50 (second compound 0.0316 µM) of less than 31.6 nM. For the same compound, the IC50 (second compound 0.1 µM) was less than 31.6 nM, the IC50 (second compound 0.316 µM) was less than 31.6 nM and the IC50 (second compound 1 µM) was less than 31.6 nM. For the same compound, the viability, T/C [1] was 59%, the viability, T/C [2] was 49.2% and the viability, T/C [3] was 52.5%. It also gave a viability, T/C [4] of 70.5%, a viability, T/C [5] of 70.8% and a viability, T/C [6] of 56.5%. For the same compound, the viability, T/C [7] was 57.8%, the viability, T/C [8] was 51.8% and the viability, T/C [9] was 47.7%. For the same compound, the viability, T/C [10] was 44.5%, the viability, T/C [11] was 56.5% and the viability, T/C [12] was 61.1%. For the same compound, the viability, T/C [13] was 45%, the viability, T/C [14] was 38.2% and the viability, T/C [15] was 30.8%. It also gave a viability, T/C [16] of 40.9%, a viability, T/C [17] of 42.6% and a viability, T/C [18] of 49.7%. The viability, T/C [19] was 25.3%, the viability, T/C [20] was 21.6% and the viability, T/C [21] was 19.3%. The viability, T/C [22] was 25.7%, the viability, T/C [23] was 30.4% and the viability, T/C [24] was 25.3%. It also gave a viability, T/C [25] of 13.5%, a viability, T/C [26] of 13.4% and a viability, T/C [27] of 11%. The viability, T/C [28] was 14.6%, the viability, T/C [29] was 15.5% and the viability, T/C [30] was 17.3%. It also gave a viability, T/C [31] of 10.3%, a viability, T/C [32] of 9.98% and a viability, T/C [33] of 7.7%. It also gave a viability, T/C [34] of 7.88%, a viability, T/C [35] of 12.1% and a viability, T/C [36] of 9.67%.
Work on `CC(Cn1ccc(-c2ccc(C#N)c(Cl)c2)n1)NC(=O)c1cc(C(C)O)[nH]n1` (stereo unspecified) + CC(Nc1ccc2c(c1)OCCn1cc(N3C(=O)OCC3C(F)F)nc1-2)C(N)=O yielded an IC50 (second compound 0.00316 µM) greater than 10000 nM, an IC50 (second compound 0.01 µM) greater than 10000 nM and an IC50 (second compound 0.0316 µM) greater than 10000 nM. It also gave an IC50 (second compound 0.1 µM) of less than 31.6 nM, an IC50 (second compound 0.316 µM) of less than 31.6 nM and an IC50 (second compound 1 µM) of less than 31.6 nM. The viability, T/C [1] was 86.4%, the viability, T/C [2] was 85.9% and the viability, T/C [3] was 84.1%. The viability, T/C [4] was 80.4%, the viability, T/C [5] was 90.8% and the viability, T/C [6] was 73.1%. For the same compound, the viability, T/C [7] was 84%, the viability, T/C [8] was 74.7% and the viability, T/C [9] was 80.1%. It also gave a viability, T/C [10] of 84%, a viability, T/C [11] of 90.5% and a viability, T/C [12] of 86.5%. For the same compound, the viability, T/C [13] was 64.2%, the viability, T/C [14] was 79.4% and the viability, T/C [15] was 79.1%. For the same compound, the viability, T/C [16] was 80.3%, the viability, T/C [17] was 74.8% and the viability, T/C [18] was 67.4%. It also gave a viability, T/C [19] of 46.6%, a viability, T/C [20] of 49.3% and a viability, T/C [21] of 55.1%. It also gave a viability, T/C [22] of 48.9%, a viability, T/C [23] of 43.7% and a viability, T/C [24] of 44.9%. For the same compound, the viability, T/C [25] was 25.3%, the viability, T/C [26] was 27.9% and the viability, T/C [27] was 27.9%. For the same compound, the viability, T/C [28] was 26.9%, the viability, T/C [29] was 26.8% and the viability, T/C [30] was 23.2%. It also gave a viability, T/C [31] of 15.8%, a viability, T/C [32] of 15% and a viability, T/C [33] of 17%. It also gave a viability, T/C [34] of 14.9%, a viability, T/C [35] of 17.4% and a viability, T/C [36] of 17.3%.
